Results: patent publication US9982232B2, “Methods of generating cells with multilineage potential” (NEWSOUTH INNOVATIONS PTY LIMITED, priority 2012, dated 2018)

Assays:
Format in all cases: cell-based, mouse
[1] = test system: in vitro differentiated bone, cartilage and fat cells; experiment: CFU-F colony formation and replating of in vitro derived bone, cartilage and fat cells cultured with cytokines with and without AZA; settings: for colony forming potential (CFU-F): cells maintained 12 days in MSC culture medium with supplement
Experimental: (§1) In vitro differentiated bone, cartilage, fat and long-bone derived osteocytes were first cultured in MSC medium (αMEM+20% FCS+P/S/G) with or without 10 μM 5′Azacitidine (Tocris Biosciences) and with or without cytokine (50 or 100 ng/ml Pdgf-AA or Pdgf-BB or Pdgf-AB, 10 ng/ml bFgf, 20 ng/ml HGF, 10 ng/ml Igf-1 and 10 ng/ml Vegf for 2 days and then cultured in MSC media with or without cytokine for 10 days. In order to investigate the reprogramming cell signalling pathways, inhibitors were added to the reprogramming cocktail from day 1 and kept for 12 days. Media was refreshed every 3-4 days. At the end of day 12 cells were harvested for downstream analysis.
CFU-Fs, oCFU-Fs, cCFU-Fs and aCFU-Fs were expanded in bulk culture after plating 10,000 cells per T75 flask. Resulting cells were split every 8 days. CFU-F and oCFU-F colonies were isolated individually using cloning cylinders (‘O” rings) (Sigma-Aldrich) and CFU-F clones (micro, small and large) and Osteocyte oCFU-F clones (micro, small and large) were pooled individually as micro (MC), small (SC) and large (LC) colonies and cultured first in T25 flask for 12 days and then from passage 2 onwards in T75 flask for 12 days. Cumulative cells numbers were calculated and plotted (log 10 scale). Micro, small and large colony's 2ry, 3ry and 4ry colony formation was evaluated by plating single cell from individual colonies into 96 well plates. In order to investigate differences in proliferative capacity of reprogrammed cells compared with primary CFU-Fs, cells were plated on RTCA resistor plate 96 (Roche Diagnostics) (200 cells/well) and recorded using XCELLigence (ACEA Biosciences) every 15 mins for 8 days.
To test whether lineage committed mesodermal cells could be induced to proliferate, bone marrow CFU-Fs (Colony Forming Units-Fibroblast) were harvested from mice, and following in vitro differentiation into bone, cartilage and fat cells, cultured them with different cytokines with and without AZA.
To assess and compare clonal vigour of replated cells, the inventors have developed a system to classify CFU-Fs based on cell number and size (Chong et al., 2011).

primary osteoblasts [2] = experiment: Surface Pdgf receptor expression and signalling protein levels in primary osteoblasts; settings: within 48 hours of exposure
Experimental: Cell pellets were lysed in non-denaturing lysis buffer containing Complete Protease inhibitor cocktail (Roche) and PhosStop (Roche), followed by brief sonication using Bioruptor (Diagenode). The supernatant of the whole-cell extracts were loaded onto NuPage 4-12% Bis-Tri Gel (Life Technology) and transferred using iBlot Gel Transfer Kit (Nitrocellulose, Life Technology) according to the manufacturers instructions. Densitometry was performed using GE ImageQuant TL Software Version 7.0.
Active Pdgf isoforms stimulate cells by binding to and activating signalling by dimerization of two distinct, but structurally related, membrane bound receptor tyrosine kinases; Pdgf receptor-α (Pdgfrα) and Pdgf receptor-β (Pdgfrβ). Pdgf-BB has a greater binding affinity for Pdgfrβ but can also bind Pdgfrα whereas Pdgf-AA interacts only with Pdgfrα. Therefore, Pdgf-AA induces αα-receptor homodimers, PDGF-AB, both αα-receptor homodimers and αβ-receptor heterodimers and Pdgf-BB, all three dimeric combinations of α and β receptors, however in vivo binding of PDGF-AB is not known. Primary osteoblasts express Pdgfrβ but not Pdgfrα. […] These included expression of Pdgf receptors α and β, and components of the Jak/Stat and Jnk/c-Jun pathways but not the PI3kinase pathway. […]

primary osteoblasts [3] = experiment: Inhibitor studies: PDGF-AB/AZA mediated oCFU-F production from primary osteoblasts; settings: inhibitor in reprogramming cocktail from day 1 for 12 days
Experimental: as §1
Active Pdgf isoforms stimulate cells by binding to and activating signalling by dimerization of two distinct, but structurally related, membrane bound receptor tyrosine kinases; Pdgf receptor-α (Pdgfrα) and Pdgf receptor-β (Pdgfrβ). Pdgf-BB has a greater binding affinity for Pdgfrβ but can also bind Pdgfrα whereas Pdgf-AA interacts only with Pdgfrα. Therefore, Pdgf-AA induces αα-receptor homodimers, PDGF-AB, both αα-receptor homodimers and αβ-receptor heterodimers and Pdgf-BB, all three dimeric combinations of α and β receptors, however in vivo binding of PDGF-AB is not known. Primary osteoblasts express Pdgfrβ but not Pdgfrα. […]

[4] = test system: osteocytes from long bones of Pdgfrα-H2B:GFP mice; experiment: Reprogramming of primary osteocytes from Pdgfrα-H2B:GFP mice (CFU-F assays, flow cytometry)
Experimental: Osteocytes were isolated from long bones of either wild-type C57BL/6 or Pdgfra-nGFP mice. The mice were sacrificed at 8-16 weeks of age. Tibias and femurs were removed, cleaned of soft tissues and transferred to ice cold PBS. Bone marrow was flushed out with 2% FCS in PBS and bones were crushed and cut into ˜200 μm-400 μm pieces using a mortar and pestle and scissors. Bone fragments were transferred into 5 ml of collagenase (Type II, 2 mg/ml) in PBS and placed on a water bath shaker at 37° C. for 30 min twice. Supernatant was collected and collagenase was inactivated with 10 ml of 2% FCS and 5 mM EDTA in PBS. Cells were collected through 40 μm cell strainer. Cells were stained for Seal, CD51, CD31, Lin/CD45 and Pdgfrα. These cells were FACS sorted for Sca1^−/CD31^−/Pdgfra-nGFP^−/Pdgfra-Protein^−/CD51^+ osteocytes. FACS sorted osteocytes and bone fragments were cultured independently in complete culture medium (DMEM+P/S/G+100 ug/ml of ascorbate+10% FCS). Cells were cultured at 37° C. and 5% CO2 in the incubator for 8-10 days. […]
To evaluate how primary lineage committed cells respond to PDGF-AB/AZA, the inventors harvested Lin^−, CD45^−/Sca1^−/CD31^−/Pdgfrα-nGFP^−/Pdgfrα^−/CD51^+ osteocytes from long bones of Pdgfrα-H2B:GFP mice. […] The emergence of CFU-F capacity in reprogrammed osteocytes was evaluated by replating cells for CFU-F assays from the end of day 1 onwards (FIG. 2A).

Molecule	number of CFU-Fs generated at first passage ([1]; bone, cartilage and fat cells)	numbers of large colonies at first passage ([1]; bone, cartilage and fat cells)	colony forming potential (CFU-F) [1]	also measured
Nc1ncn([C@@H]2O[C@H](CO)[C@@H](O)[C@H]2O)c(=O)n1 [AZA, Azacitidine, reference compound]	also generated CFU-Fs at first passage			serial passaging / replating of colonies ([1]; bone, cartilage and fat cells): could not be replated at all; surface Pdgfrα protein expression on primary osteoblasts (primary osteoblasts [2]): Pdgfrα protein expression was evident
Igf-1: insulin-like growth factor-1, tested with or without AZA	substantially lower than with PDGF-AB	few large colonies	either no or limited CFU-F potential	
COc1cc2ncc(-c3ccccc3)nc2cc1OC [AG1296]				PDGF-AB/AZA mediated oCFU-F production from primary osteoblasts in presence of inhibitor (primary osteoblasts [3]): abolished
Vegf	substantially lower than with PDGF-AB	few large colonies	either no or limited CFU-F potential	
bFgf: basic fibroblast growth factor, tested with or without AZA (protein, UniProt P15655 10-154, looked up) Fibroblast growth factor 2: PALPEDGGAAFPPGHFKDPKRLYCKNGGFFLRIHPDGRVDGVREKSDPHVKLQLQAEERGVVSIKGVCANRYLAMKEDGRLLASKCVTEECFFFERLESNNYNTYRSRKYSSWYVALKRTGQYKLGSKTGPGQKAILFLPMSAKS	substantially lower than with PDGF-AB	few large colonies	either no or limited CFU-F potential	
Hgf: hepatocyte growth factor, tested with or without AZA (protein, UniProt Q08048 33-495; Q08048 496-728, looked up) Hepatocyte growth factor …: QKKRRNTLHEFKKSAKTTLTKEDPLLKIKTKKVNSADECANRCIRNRGFTFTCKAFVFDKSRKRCYWYPFNSMSSGVKKGFGHEFDLYENKDYIRNCIIGKGGSYKGTVSITKSGIKCQPWNSMIPHEHSFLPSSYRGKDLQENYCRNPRGEEGGPWCFTSNPEVRYEVCDIPQCSEVECMTCNGESYRGPMDHTESGKTCQRWDQQTPHRHKFLPERYPDKGFDDNYCRNPDGKPRPWCYTLDPDTPWEYCAIKTCAHSAVNETDVPMETTECIQGQGEGYRGTSNTIWNGIPCQRWDSQYPHKHDITPENFKCKDLRENYCRNPDGAESPWCFTTDPNIRVGYCSQIPKCDVSSGQDCYRGNGKNYMGNLSKTRSGLTCSMWDKNMEDLHRHIFWEPDASKLNKNYCRNPDDDAHGPWCYTGNPLIPWDYCPISRCEGDTTPTIVNLDHPVISCAKTKQLR Hepatocyte growth factor beta …: VVNGIPTQTTVGWMVSLKYRNKHICGGSLIKESWVLTARQCFPARNKDLKDYEAWLGIHDVHERGEEKRKQILNISQLVYGPEGSDLVLLKLARPAILDNFVSTIDLPSYGCTIPEKTTCSIYGWGYTGLINADGLLRVAHLYIMGNEKCSQHHQGKVTLNESELCAGAEKIGSGPCEGDYGGPLICEQHKMRMVLGVIVPGRGCAIPNRPGIFVRVAYYAKWIHKVILTYKL	substantially lower than with PDGF-AB	few large colonies	either no or limited CFU-F potential	
Pdgf-BB: platelet derived growth factor BB, tested with/without AZA (protein, UniProt P31240 82-190, looked up, homodimer, platelet derived growth factor BB, tested with/without AZA) Platelet-derived growth …: SLGSLAAAEPAVIAECKTRTEVFQISRNLIDRTNANFLVWPPCVEVQRCSGCCNNRNVQCRASQVQMRPVQVRKIEIVRKKPIFKKATVTLEDHLACKCETIVTPRPVT				passaging of CFU-F colonies from treated osteocytes ([4]; 12 days treatment): could not be passaged; CFU-F capacity of treated osteocytes ([4]; up to 12 days treatment): very limited CFU-F capacity
